Source: US9770026B2, “Substituted pyrimidine compound and uses thereof” (Shenyang Sinochem Agrochemicals R&D Co., Ltd., priority 2012, dated 2017)

Key:
rice blast = assay: microbe, parasite or virus in culture; type: cell-based; details: Pyricularia oryzae; for inhibition at 8.3 ppm: read-out: inhibition rate against rice blast, 8.3 ppm, in vitro; for inhibition at 25 ppm: read-out: inhibition rate against rice blast, 25 ppm, in vitro
[1] = tested on: Green peach aphids (Myzus Persicae Sulzer); assay: bioactivity test against green peach aphid, airbrush foliar spray; type: in vivo; details: Myzus persicae, foliar, 48 h; for pest or weed control at 2.5 µg/mL: 2.5 mg/L; for pest or weed control at 5 µg/mL: 5 mg/L; for pest or weed control at 10 µg/mL: 10 mg/L; for pest or weed control at 100 µg/mL: 100 mg/L; for pest or weed control at 600 µg/mL: 600 mg/L
In short: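 Aphids (15-30 per cabbage leaf disc) on moist filter paper were airbrush-sprayed at 10 psi, 0.5 mL, with compound from acetone:methanol (1:1) diluted in water with 0.1% tween 80. Held at 25±1 C, 60±5% RH; survivors counted after 48 hrs to give death rates.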

armyworm = assay: bioactivity test against armyworm, airbrush spray; type: in vivo; details: 72 h; for pest or weed control at 10 µg/mL: 10 mg/L; for pest or weed control at 10 µg/mL / pest or weed control at 100 µg/mL / pest or weed control at 600 µg/mL: read-out: Insecticidal activity against armyworm (%); for pest or weed control at 100 µg/mL: 100 mg/L; for pest or weed control at 600 µg/mL: 600 mg/L
[2] = concentration of 400 and 100 ppm; cited from earlier work
corn rust = assay: protectant activity in vivo against corn rust; details: Zea mays, 168 h; for pest or weed control at 25 µg/mL: read-out: control effect against corn rust (%), 25 mg/L; for pest or weed control at 100 µg/mL: read-out: control effect against corn rust (%), 100 mg/L; for pest or weed control at 400 µg/mL: read-out: control effect against corn rust (%), 400 mg/L; for pest or weed control at 100 ppm: read-out: protectant activity against corn rust in vivo, 100 ppm; for pest or weed control at 400 ppm: read-out: protectant activity against corn rust in vivo, 400 ppm
[3] = concentration of 50 ppm; cited from earlier work
wheat powdery mildew = assay: protectant activity in vivo against wheat powdery mildew; details: Triticum aestivum, 168 h; for pest or weed control at 100 µg/mL: read-out: control effect against wheat powdery mildew (%), 100 mg/L; for pest or weed control at 100 µg/mL / pest or weed control at 400 µg/mL / pest or weed control at 6.25 µg/mL / pest or weed control at 25 µg/mL: protectant activity; for pest or weed control at 400 µg/mL: read-out: control effect against wheat powdery mildew (%), 400 mg/L; for pest or weed control at 400 ppm: read-out: protectant activity against wheat powdery mildew in vivo, 400 ppm; for pest or weed control at 6.25 µg/mL: read-out: control effect against wheat powdery mildew (%), 6.25 mg/L; for pest or weed control at 25 µg/mL: read-out: control effect against wheat powdery mildew (%), 25 mg/L
cucumber downy mildew = assay: protectant activity in vivo against cucumber downy mildew; details: Cucumis sativus, 168 h; for pest or weed control at 100 ppm: read-out: protectant activity against cucumber downy mildew in vivo, 100 ppm; for pest or weed control at 6.25 µg/mL: read-out: control effect against cucumber downy mildew (%), 6.25 mg/L; for pest or weed control at 6.25 µg/mL / pest or weed control at 12.5 µg/mL / pest or weed control at 25 µg/mL / pest or weed control at 50 µg/mL / pest or weed control at 100 µg/mL / pest or weed control at 400 µg/mL: protectant activity; for pest or weed control at 12.5 µg/mL: read-out: control effect against cucumber downy mildew (%), 12.5 mg/L; for pest or weed control at 25 µg/mL: read-out: control effect against cucumber downy mildew (%), 25 mg/L; for pest or weed control at 50 µg/mL: read-out: control effect against cucumber downy mildew (%), 50 mg/L; for pest or weed control at 100 µg/mL: read-out: control effect against cucumber downy mildew (%), 100 mg/L; for pest or weed control at 400 µg/mL: read-out: control effect against cucumber downy mildew (%), 400 mg/L
cucumber gray mold = assay: fungicidal activity in vitro (inhibition rate) against cucumber gray mold; type: cell-based; details: 25 ppm, in vitro; read-out: inhibition rate against cucumber gray mold
Diamond back moth = assay: insecticidal activity against diamond back moth, airbrush spray; type: in vivo; details: 72 h
In short: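 Airbrush leaf-disc spray test: both faces of 2 cm cabbage discs received 0.5 ml of test solution at 0.7 kg/cm^2. Solutions were made in acetone:methanol (1:1) and brought to concentration with 0.1% Tween 80 in water. Ten second-instar larvae per disc, triplicates, were held at 25° C and 60˜70% R.H., with mortality recorded at 72 hrs.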

carmine spider mite = assay: bioactivity test against carmine spider mite, airbrush spray; type: in vivo; details: Tetranychus cinnabarinus, 72 h
In short: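 Broadbean seedlings infested with adult mites were sprayed with compound (acetone/methanol stock diluted in 0.1% Tween 80 water) by airbrush at 0.7 kg/cm^2, 0.5 ml. Three replicates were run. Mortality was scored after 72 hrs.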

[4] = contrastive test, read-out: Insecticidal activity against peach aphid (%)

Clc1ccc(Oc2ccc(CCNc3ncnc4ccccc34)cn2)cc1 [CK18, reference compound]
inhibition at 8.3 ppm (rice blast): 0%
pest or weed control at 2.5 µg/mL [1, 4]: 0%
pest or weed control at 5 µg/mL [1, 4]: 7%
pest or weed control at 10 µg/mL [1, 4]: 51%
pest or weed control at 100 µg/mL [1, 4]: 71%
pest or weed control at 600 µg/mL [1, 4]: 100%
pest or weed control at 10 µg/mL (armyworm): 14%
pest or weed control at 100 µg/mL (armyworm): 43%
pest or weed control at 600 µg/mL (armyworm): 100%
fungicidal activity [2]: good fungicidal activity
pest or weed control at 25 µg/mL (corn rust; protectant activity): 0%
pest or weed control at 100 µg/mL (corn rust; protectant activity): 30%
pest or weed control at 400 µg/mL (corn rust; protectant activity): 80%
insectcidal activity [3]: good insectcidal activity

FC(F)(F)c1ccc(Oc2ccc(CCNc3ncnc4ccccc34)cn2)cc1 [CK19, reference compound]
inhibition at 8.3 ppm (rice blast): 0%
pest or weed control at 10 µg/mL [1, 4]: 33%
pest or weed control at 100 µg/mL [1, 4]: 86%
pest or weed control at 600 µg/mL [1, 4]: 100%
pest or weed control at 10 µg/mL (armyworm): 7%
pest or weed control at 100 µg/mL (armyworm): 25%
pest or weed control at 600 µg/mL (armyworm): 86%
fungicidal activity [2]: good fungicidal activity
pest or weed control at 100 µg/mL (corn rust; protectant activity): 0%
pest or weed control at 400 µg/mL (corn rust; protectant activity): 70%
pest or weed control at 100 µg/mL (wheat powdery mildew): 0%
pest or weed control at 400 µg/mL (wheat powdery mildew): 50%
insectcidal activity [3]: good insectcidal activity

COc1cc(OC)nc(Oc2ccc(CCNc3ncnc(C)c3Cl)cc2)n1 [Compound I-4757]
inhibition at 25 ppm (rice blast): 80 to 99%
pest or weed control at 100 ppm (cucumber downy mildew): 100%
pest or weed control at 400 ppm (cucumber downy mildew; read-out: protectant activity against cucumber downy mildew in vivo, 400 ppm): 100%
melting point: 119 to 120 °C
pest or weed control at 25 ppm (corn rust; read-out: protectant activity against corn rust in vivo, 25 ppm): 80 to 99%
pest or weed control at 100 ppm (corn rust): 100%
pest or weed control at 400 ppm (corn rust): 100%
pest or weed control at 400 ppm (wheat powdery mildew): 100%
inhibition at 25 ppm (cucumber gray mold): 100%

CCc1ncnc(NCCc2ccc(Oc3ccc(C(F)(F)F)cc3)nc2)c1Cl [III-202]
inhibition at 25 ppm (rice blast): 80 to 99%
pest or weed control at 6.25 µg/mL (cucumber downy mildew): 100%
pest or weed control at 12.5 µg/mL (cucumber downy mildew): 100%
pest or weed control at 25 µg/mL (cucumber downy mildew): 100%
pest or weed control at 50 µg/mL (cucumber downy mildew): 100%
pest or weed control at 100 µg/mL (cucumber downy mildew): 100%
pest or weed control at 400 µg/mL (cucumber downy mildew): 100%
pest or weed control at 6.25 ppm (cucumber downy mildew; read-out: protectant activity against cucumber downy mildew in vivo, 6.25 ppm): 100%
pest or weed control at 12.5 ppm (cucumber downy mildew; read-out: protectant activity against cucumber downy mildew in vivo, 12.5 ppm): 100%
pest or weed control at 25 ppm (cucumber downy mildew; read-out: protectant activity against cucumber downy mildew in vivo, 25 ppm): 100%
pest or weed control at 50 ppm (cucumber downy mildew; read-out: protectant activity against cucumber downy mildew in vivo, 50 ppm): 100%
pest or weed control at 100 ppm (cucumber downy mildew): 100%
pest or weed control at 1.25 µg/mL ([1]; 1.25 mg/L, contrastive test, read-out: Insecticidal activity against peach aphid (%)): 94%
pest or weed control at 2.5 µg/mL [1, 4]: 100%
pest or weed control at 5 µg/mL [1, 4]: 100%
pest or weed control at 10 µg/mL [1, 4]: 100%
pest or weed control at 100 µg/mL [1, 4]: 100%
pest or weed control at 600 µg/mL [1, 4]: 100%
pest or weed control at 10 ppm ([1]; 10 ppm, death rate after 48 hrs): 100%
pest or weed control at 100 ppm ([1]; 100 ppm, death rate after 48 hrs): 100%
pest or weed control at 600 ppm ([1]; 600 ppm, death rate after 48 hrs): 100%
pest or weed control at 100 ppm (Diamond back moth; 100 ppm, mortality after 72 hrs, read-out: control (test results against diamond back moth)): 80 to 99%
pest or weed control at 600 ppm (Diamond back moth; 600 ppm, mortality after 72 hrs, read-out: control (test results against diamond back moth)): 100%
pest or weed control at 10 µg/mL (armyworm): 65%
pest or weed control at 100 µg/mL (armyworm): 100%
pest or weed control at 600 µg/mL (armyworm): 100%
pest or weed control at 100 ppm (armyworm; 100 ppm, mortality after 72 h): 100%
pest or weed control at 600 ppm (armyworm; 600 ppm, mortality after 72 h): 100%
pest or weed control at 100 ppm (carmine spider mite; 100 ppm, mortality after 72 hrs): 100%
pest or weed control at 600 ppm (carmine spider mite; 600 ppm, mortality after 72 hrs): 100%
pest or weed control at 100 ppm (corn rust): 100%
pest or weed control at 400 ppm (corn rust): 100%
pest or weed control at 6.25 µg/mL (wheat powdery mildew): 95%
pest or weed control at 25 µg/mL (wheat powdery mildew): 100%
pest or weed control at 100 µg/mL (wheat powdery mildew): 100%
pest or weed control at 400 µg/mL (wheat powdery mildew): 100%
pest or weed control at 6.25 ppm (wheat powdery mildew; read-out: protectant activity against wheat powdery mildew in vivo, 6.25 ppm): 80 to 99%
pest or weed control at 25 ppm (wheat powdery mildew; read-out: protectant activity against wheat powdery mildew in vivo, 25 ppm): 100%
pest or weed control at 100 ppm (wheat powdery mildew; read-out: protectant activity against wheat powdery mildew in vivo, 100 ppm): 100%
pest or weed control at 400 ppm (wheat powdery mildew): 100%
inhibition at 25 ppm (cucumber gray mold): 80 to 99%

CCC(Nc1ncnc(C)c1Cl)c1ccc(OC(F)F)cc1 (centres unmarked) [diflumetorim, reference compound]
inhibition at 8.3 ppm (rice blast): 0%
pest or weed control at 6.25 µg/mL (cucumber downy mildew): 0%
pest or weed control at 12.5 µg/mL (cucumber downy mildew): 15%
pest or weed control at 25 µg/mL (cucumber downy mildew): 70%
pest or weed control at 50 µg/mL (cucumber downy mildew): 100%
pest or weed control at 100 µg/mL (cucumber downy mildew): 100%
pest or weed control at 400 µg/mL (cucumber downy mildew): 100%
pest or weed control at 10 µg/mL [1, 4]: 0%
pest or weed control at 100 µg/mL [1, 4]: 35%
pest or weed control at 600 µg/mL [1, 4]: 100%
pest or weed control at 600 µg/mL (Diamond back moth; 600 mg/L): 0%
pest or weed control at 600 µg/mL (armyworm): 0%
pest or weed control at 10 µg/mL (carmine spider mite; 10 mg/L, contrastive test, read-out: Insecticidal activity against carmine spider mite (% )): 73%
pest or weed control at 100 µg/mL (carmine spider mite; 100 mg/L, contrastive test, read-out: Insecticidal activity against carmine spider mite (% )): 100%
pest or weed control at 600 µg/mL (carmine spider mite; 600 mg/L, contrastive test, read-out: Insecticidal activity against carmine spider mite (% )): 100%
pest or weed control at 6.25 µg/mL (corn rust; read-out: control effect against corn rust (%), 6.25 mg/L, protectant activity): 0%
pest or weed control at 25 µg/mL (corn rust; protectant activity): 10%
pest or weed control at 100 µg/mL (corn rust; protectant activity): 80%
pest or weed control at 400 µg/mL (corn rust; protectant activity): 100%
pest or weed control at 6.25 µg/mL (wheat powdery mildew): 90%
pest or weed control at 25 µg/mL (wheat powdery mildew): 95%
pest or weed control at 100 µg/mL (wheat powdery mildew): 95%
pest or weed control at 400 µg/mL (wheat powdery mildew): 100%
inhibition at 25 ppm (cucumber gray mold): 0%
